IC50 and EC50 data for ten compounds are collected here from ChEMBL document CHEMBL6071129, “Strategies that regulate Hippo signaling pathway for novel anticancer therapeutics” (Eur J Med Chem, 2024).

Assay [1] in a line: Antiproliferative activity against human JHESO cells incubated for 72 hrs by MTS assay. It counts as functional, cell-based.
Assay [2] can be described thus: Antiproliferative activity against human SKGT4 cells incubated for 72 hrs by MTS assay. The conditions noted are these: SKGT4, 72 h. It counts as functional, cell-based.
Assay [3] can be described thus: Antiproliferative activity against human OACP cells incubated for 72 hrs by MTS assay. It counts as functional, cell-based.
Assay [4] in a line: Antiproliferative activity against human FLO-1 cells incubated for 72 hrs by MTS assay. It counts as functional, cell-based. Conditions: FLO-1, 72 h.
The test system of another assay is NCI-H1975. As to the kind of experiment: Antiproliferative activity against human NCI-H1975 cells incubated for 48 hrs by SRB method. In kind it is functional, cell-based. The conditions noted are these: NCI-H1975, 48 h.
The test system of a further assay is NCI-H441. As to the kind of experiment: Antiproliferative activity against human NCI-H441 cells incubated for 48 hrs by SRB method. It counts as functional, cell-based. Conditions: NCI-H441, 48 h.
In another assay the test system is A549. Put plainly: Antiproliferative activity against human A549 cells incubated for 48 hrs by SRB method. In kind it is functional, cell-based. Conditions: A549, 48 h.
In the next assay the test system is HCT-116. Put plainly: Antiproliferative activity against human HCT-116 cells incubated for 48 hrs by MTT assay. It counts as functional, cell-based. Conditions: HCT-116, 48 h.
The subject of another assay is A2780. As to the kind of experiment: Antiproliferative activity against human A2780 cells incubated for 48 hrs by MTT assay. In kind it is functional, cell-based. The conditions noted are these: A2780, 48 h.
Assay [5] is described as follows: Antiproliferative activity against human A2780/CP70 cells incubated for 48 hrs by MTT assay. It counts as functional, cell-based. The conditions noted are these: A2780/CP70, 48 h.
Assay [6] is described as follows: Antiproliferative activity against human HCA46 cells incubated for 48 hrs by MTT assay. The conditions noted are these: HCA46, 48 h. It counts as functional, cell-based.
The next assay concerns HT-29. As to the kind of experiment: Antiproliferative activity against human HT-29 cells incubated for 48 hrs by MTT assay. In kind it is functional, cell-based. The conditions noted are these: HT-29, 48 h.
The subject of another assay is MDA-MB-231. Put plainly: Antiproliferative activity against human MDA-MB-231 cells incubated for 96 hrs by MTT assay. In kind it is functional, cell-based. The conditions noted are these: MDA-MB-231, 96 h.
The nature of assay [7]: Antiproliferative activity against human HBC5 cells incubated for 96 hrs by MTT assay. It counts as functional, cell-based. Conditions: HBC5, 96 h.
The nature of assay [8]: Antiproliferative activity against human HBC4 cells incubated for 96 hrs by MTT assay. It counts as functional, cell-based. The conditions noted are these: HBC4, 96 h.
The nature of assay [9]: Antiproliferative activity against CMT9 cells incubated for 48 hrs. In kind it is functional. The conditions noted are these: Canis lupus familiaris, read-out: ED50 (the source's name).
Assay [10] is described as follows: Antiproliferative activity against CMT47 cells incubated for 48 hrs. In kind it is functional. Conditions: Canis lupus familiaris, read-out: ED50 (the source's name).
Assay [11] is described as follows: Inhibition of TEAD (unknown origin) to YAP (unknown origin) protein-protein interaction expressed in HEK293T cells transfected with 8XGTIIC-Luciferase and CMV-betagalactosidase incubated for 24 hrs by luciferase reporter assay. In kind it is cell-based, Homo sapiens.
The subject of the next assay is NCI-H2052. Put plainly: Antiproliferative activity against human NCI-H2052 cells. In kind it is functional, cell-based.
Assay [12] is described as follows: Inhibition of TEAD (unknown origin) by YAP reporter assay. Also noted: species or system Homo sapiens.
Assay [13] can be described thus: Inhibition of His-tagged TEAD1 (unknown origin) to YAP (unknown origin) protein-protein interaction preincubated for 30 mins followed by biotinylated YAP addition and measured after 60 mins by TR-FRET assay. Also on record: species or system Homo sapiens.
The nature of assay [14]: Inhibition of His-tagged TEAD2 (unknown origin) to YAP (unknown origin) protein-protein interaction preincubated for 30 mins followed by biotinylated YAP addition and measured after 60 mins by TR-FRET assay. Also on record: species or system Homo sapiens.
Assay [15] in a line: Inhibition of His-tagged TEAD3 (unknown origin) to YAP (unknown origin) protein-protein interaction preincubated for 30 mins followed by biotinylated YAP addition and measured after 60 mins by TR-FRET assay. Also on record: species or system Homo sapiens.
Assay [16] is described as follows: Inhibition of His-tagged TEAD4 (unknown origin) to YAP (unknown origin) protein-protein interaction preincubated for 30 mins followed by biotinylated YAP addition and measured after 60 mins by TR-FRET assay. Also noted: species or system Homo sapiens.
Assay [17] in a line: Inhibition of His-tagged TEAD1 (unknown origin) to TAZ (unknown origin) protein-protein interaction preincubated for 30 mins followed by biotinylated YAP addition and measured after 60 mins by TR-FRET assay. Also noted: species or system Homo sapiens.
Assay [18] in a line: Inhibition of His-tagged TEAD2 (unknown origin) to TAZ (unknown origin) protein-protein interaction preincubated for 30 mins followed by biotinylated YAP addition and measured after 60 mins by TR-FRET assay. Also on record: species or system Homo sapiens.
Assay [19] can be described thus: Inhibition of His-tagged TEAD3 (unknown origin) to TAZ (unknown origin) protein-protein interaction preincubated for 30 mins followed by biotinylated YAP addition and measured after 60 mins by TR-FRET assay. Also noted: species or system Homo sapiens.
Assay [20] can be described thus: Inhibition of His-tagged TEAD4 (unknown origin) to TAZ (unknown origin) protein-protein interaction preincubated for 30 mins followed by biotinylated YAP addition and measured after 60 mins by TR-FRET assay. Also noted: species or system Homo sapiens.
The test system of assay [21] is Transcriptional enhancer factor TEF-1-Lipid. As to the kind of experiment: Inhibition of His-tagged TEAD1 (unknown origin) to lipid (unknown origin) interaction preincubated for 30 mins followed by biotinylated lipid addition and measured after 60 mins by TR-FRET assay. Also on record: species or system Homo sapiens.
Assay [22] concerns Transcriptional enhancer factor TEF-4-Lipid. As to the kind of experiment: Inhibition of His-tagged TEAD2 (unknown origin) to lipid (unknown origin) interaction preincubated for 30 mins followed by biotinylated lipid addition and measured after 60 mins by TR-FRET assay. Also noted: species or system Homo sapiens.
For assay [23], the system named is Transcriptional enhancer factor TEF-5-Lipid. Put plainly: Inhibition of His-tagged TEAD3 (unknown origin) to lipid (unknown origin) interaction preincubated for 30 mins followed by biotinylated lipid addition and measured after 60 mins by TR-FRET assay. Also noted: species or system Homo sapiens.
Assay [24] relates to Transcriptional enhancer factor TEF-3-Lipid. As to the kind of experiment: Inhibition of His-tagged TEAD4 (unknown origin) to lipid (unknown origin) interaction preincubated for 30 mins followed by biotinylated lipid addition and measured after 60 mins by TR-FRET assay. Also on record: species or system Homo sapiens.

Each structure is given as a SMILES string.

As for `O=S(=O)(c1ccc2c(c1)C(=NO)c1cc(S(=O)(=O)N3CCCCC3)ccc1-2)N1CCCCC1`, the 50% inhibitory concentration (IC50) in [1], in assay [2], in assay [3] and in assay [4] was < 1000 nM in each case.

Consider `Cc1cc2c(C(C)C)c(O)c(O)c(C=O)c2c(O)c1-c1c(C)cc2c(C(C)C)c(O)c(O)c(C=O)c2c1O`, for which the figures for the IC50 in the assay on NCI-H1975, in the assay with NCI-H441 and in the assay on A549 were 6770 nM, 19900 nM and 10000 nM, respectively.

In the case of `O=C1C=C(Nc2ccc(O)cc2)C(=O)c2ccccc21`, the 50% inhibitory concentration (IC50) was 4170 nM in the assay with HCT-116; 3800 nM in the assay with A2780; 5350 nM in [5]; 19800 nM in assay [6]; 2680 nM in the assay on HT-29.

Regarding `CC(C)n1c(/C=C/[C@H](O)C[C@H](O)CC(=O)O)c(-c2ccc(F)cc2)c2ccccc21`, the IC50 (in the assay with MDA-MB-231; in assay [7]; in [8]) was < 10000 nM throughout. In addition, the EC50 came to 9950 nM in [9] and 950 nM in [10].

Regarding `COc1ccc2c(c1)/C(=N/NC(=O)c1nnn(-c3ccccc3N)c1-c1ccc(Cl)c(Cl)c1)C(=O)N2`, in [11], it took 1700 nM to reach half-maximal inhibition (IC50).

Consider `Nc1nonc1-n1nnc(C(=O)N/N=C2\C(=O)Nc3ccccc32)c1-c1ccc(Cl)c(Cl)c1`, for which the concentration for half-maximal inhibition (IC50) in [11] is 6500 nM.

For the compound `COC(=O)c1cc(S(N)(=O)=O)ccc1NC1CCCCC1`, the IC50 is > 3000 nM in the assay on NCI-H2052 and 458 nM in assay [12].

Consider `CC(NC(=O)c1cc2nc(N(C)C)n(-c3ccc(Br)cc3)c2s1)c1ccccn1` (configuration not stated), for which the 50% inhibitory concentration (IC50) worked out at 2030 nM with NCI-H2052 and 391 nM in [12].

As for `N#C[C@@H]1CCN(C(=O)c2cnn3c(=O)cc(-c4ccc(C5CCCCC5)cc4)[nH]c23)C1`, the IC50 was found to be 30 nM in assay [13]; 10 nM in assay [14]; 50 nM in assay [15]; 210 nM in [16]; 50 nM in assay [17]; 10 nM in [18]. In addition, the IC50 is 40 nM in [19]; 80 nM in assay [20]; 30 nM in assay [21]; 20 nM in [22]; 40 nM in assay [23]; 50 nM in assay [24].

On to `CCOC(=O)c1cnn2c(=O)cc(-c3ccc(C(F)(F)F)cc3)[nH]c12`, for which the concentration for half-maximal inhibition (IC50) in [13] was > 5000 nM; in [14] it was 3000 nM; in [15], 1400 nM; in [16] it was > 50000 nM; in assay [17], 1300 nM; in [18], 2000 nM. Moreover, the IC50 in assay [19] is 1300 nM; in assay [20], 20000 nM; in assay [21], 1100 nM; in assay [22], 1600 nM; in assay [23], 700 nM; in assay [24], > 50000 nM.
